Test: In vitro inhibition of PAF-induced platelet aggregation in male rabbits

SMILES	IC50
Cc1ncccc1C(CO)N1CCN(C(=O)CC(c2ccccc2)c2ccccc2)CC1 (stereo not given) [1-{4-[2-Hydroxy-1-(2-methyl-pyridin-3-yl)-ethyl]-piperazin-1-yl}-3,3-diphenyl-propan-1-one]	4000 nM
Cc1ncccc1C(C#N)N1CCN(C(=O)CC(NC(=O)c2ccoc2)c2ccccc2)CC1 (stereo not given) [Furan-3-carboxylic acid (3-{4-[cyano-(2-methyl-pyridin-3-yl)-methyl]-piperazin-1-yl}-3-oxo-1-phenyl-propyl)-amide]	2600 nM
Cc1ncccc1C(C#N)N1CCN(C(=O)/C=C(/c2ccccc2)C(F)(F)F)CC1 (stereo not given) [(2-Methyl-pyridin-3-yl)-[4-(4,4,4-trifluoro-3-phenyl-but-2-enoyl)-piperazin-1-yl]-acetonitrile]	120 nM
CO/N=C(/C)C(c1cccnc1C)N1CCN(C(=O)CC(c2ccccc2)c2ccccc2)CC1 (stereo not given) [1-{4-[2-Methoxyimino-1-(2-methyl-pyridin-3-yl)-propyl]-piperazin-1-yl}-3,3-diphenyl-propan-1-one]	7800 nM
Cc1ncccc1C(C#N)N1CCN(C(=O)CC(NC(=O)c2ncccc2O)c2ccccc2)CC1 (stereo not given) [3-Hydroxy-pyridine-2-carboxylic acid (3-{4-[cyano-(2-methyl-pyridin-3-yl)-methyl]-piperazin-1-yl}-3-oxo-1-phenyl-propyl)-amide]	130 nM
Cc1ncccc1C(C#N)N1CCN(C(=O)CC(c2ccccc2)n2cccc2)CC1 (stereo not given) [(2-Methyl-pyridin-3-yl)-[4-(3-phenyl-3-pyrrol-1-yl-propionyl)-piperazin-1-yl]-acetonitrile]	350 nM
Cc1ncccc1C(C#N)N1CCN(C(=O)CC(C)c2ccccc2)CC1 (stereo not given) [(2-Methyl-pyridin-3-yl)-[4-(3-phenyl-butyryl)-piperazin-1-yl]-acetonitrile]	32 nM
Cc1ncccc1C(C#N)N1CCN(C(=O)CC(C)(O)c2ccccc2)CC1 (stereo not given) [[4-(3-Hydroxy-3-phenyl-butyryl)-piperazin-1-yl]-(2-methyl-pyridin-3-yl)-acetonitrile]	36 nM
Cc1ncccc1C(C#N)N1CCN(C(=O)CS(=O)(=O)C(c2ccccc2)c2ccccc2)CC1 (stereo not given) [{4-[2-(Diphenyl-methanesulfonyl)-acetyl]-piperazin-1-yl}-(2-methyl-pyridin-3-yl)-acetonitrile]	26 nM
Cc1ncccc1C(C#N)N1CCN(C(=O)C[S+]([O-])C(c2ccccc2)c2ccccc2)CC1 (stereo not given) [{4-[2-(Diphenyl-methanesulfinyl)-acetyl]-piperazin-1-yl}-(2-methyl-pyridin-3-yl)-acetonitrile]	44 nM
Cc1ncccc1C(C#N)N1CCN(C(=O)CC(O)(c2ccc(F)cc2)c2ccc(F)cc2)CC1 (stereo not given) [{4-[3,3-Bis-(4-fluoro-phenyl)-3-hydroxy-propionyl]-piperazin-1-yl}-(2-methyl-pyridin-3-yl)-acetonitrile]	75 nM
CCOC(=O)C(CC(=O)N1CCN(C(C#N)c2cccnc2C)CC1)(c1ccccc1)c1ccccc1 (stereo not given) [4-{4-[Cyano-(2-methyl-pyridin-3-yl)-methyl]-piperazin-1-yl}-4-oxo-2,2-diphenyl-butyric acid ethyl ester]	46 nM
Cc1ncccc1C(C#N)N1CCN(C(=O)CC(c2ccccc2)C(F)(F)F)CC1 (stereo not given) [(2-Methyl-pyridin-3-yl)-[4-(4,4,4-trifluoro-3-phenyl-butyryl)-piperazin-1-yl]-acetonitrile]	12 nM
Cc1ncccc1C(C#N)N1CCN(C(=O)CC(NC(=O)c2ccc[nH]c2=O)c2ccccc2)CC1 (stereo not given) [N-(3-{4-[Cyano-(2-methyl-pyridin-3-yl)-methyl]-piperazin-1-yl}-3-oxo-1-phenyl-propyl)-2-hydroxy-nicotinamide]	29 nM
Cc1ncccc1C(C#N)N1CCN(C(=O)CC(NS(=O)(=O)c2ccccc2)c2ccccc2)CC1 (stereo not given) [N-(3-{4-[Cyano-(2-methyl-pyridin-3-yl)-methyl]-piperazin-1-yl}-3-oxo-1-phenyl-propyl)-benzenesulfonamide]	18 nM
Cc1ncccc1C(C#N)N1CCN(C(=O)CC(O)(c2ccccc2)c2cccnc2)CC1 (stereo not given) [[4-(3-Hydroxy-3-phenyl-3-pyridin-3-yl-propionyl)-piperazin-1-yl]-(2-methyl-pyridin-3-yl)-acetonitrile]	32 nM
Cc1ncccc1C(C#N)N1CCN(C(=O)CC(O)(c2ccccc2)C(F)(F)F)CC1 (stereo not given) [(2-Methyl-pyridin-3-yl)-[4-(4,4,4-trifluoro-3-hydroxy-3-phenyl-butyryl)-piperazin-1-yl]-acetonitrile]	14 nM
Cc1ncccc1C(C#N)N1CCN(C(=O)CC(c2ccccc2)N2CCCS2(=O)=O)CC1 (stereo not given) [{4-[3-(1,1-Dioxo-1lambda*6*-isothiazolidin-2-yl)-3-phenyl-propionyl]-piperazin-1-yl}-(2-methyl-pyridin-3-yl)-acetonitrile]	170 nM
Cc1ncccc1C(C#N)N1CCN(C(=O)CC(NS(C)(=O)=O)c2ccccc2)CC1 (stereo not given) [N-(3-{4-[Cyano-(2-methyl-pyridin-3-yl)-methyl]-piperazin-1-yl}-3-oxo-1-phenyl-propyl)-methanesulfonamide]	21 nM
Cc1ncccc1C(C#N)N1CCN(C(=O)CC(NC(=O)c2cnccn2)c2ccccc2)CC1 (stereo not given) [Pyrazine-2-carboxylic acid (3-{4-[cyano-(2-methyl-pyridin-3-yl)-methyl]-piperazin-1-yl}-3-oxo-1-phenyl-propyl)-amide]	820 nM
Cc1ncccc1C(C#N)N1CCN(C(=O)CC(c2ccccc2)N2CCCC2)CC1 (stereo not given) [(2-Methyl-pyridin-3-yl)-[4-(3-phenyl-3-pyrrolidin-1-yl-propionyl)-piperazin-1-yl]-acetonitrile]	18 nM
CCOC(=O)C(c1cccnc1C)N1CCN(C(=O)CC(c2ccccc2)c2ccccc2)CC1 (stereo not given) [[4-(3,3-Diphenyl-propionyl)-piperazin-1-yl]-(2-methyl-pyridin-3-yl)-acetic acid ethyl ester]	15500 nM
Cc1ncccc1C(C#N)N1CCN(C(=O)CON=C(c2ccccc2)c2ccccc2)CC1 (stereo not given) [[4-(2-Benzhydrylideneaminooxy-acetyl)-piperazin-1-yl]-(2-methyl-pyridin-3-yl)-acetonitrile]	87 nM
Cc1ncccc1C(C#N)N1CCN(C(=O)CN(C(c2ccccc2)c2ccccc2)S(C)(=O)=O)CC1 (stereo not given) [N-Benzhydryl-N-(2-{4-[cyano-(2-methyl-pyridin-3-yl)-methyl]-piperazin-1-yl}-2-oxo-ethyl)-methanesulfonamide]	82 nM
Cc1ncccc1C(C#N)N1CCN(C(=O)/C=C(\c2ccccc2)C(F)(F)F)CC1 (stereo not given) [(2-Methyl-pyridin-3-yl)-[4-(4,4,4-trifluoro-3-phenyl-but-2-enoyl)-piperazin-1-yl]-acetonitrile]	55 nM

Test: Inhibition of PAF-induced platelet aggregation

SMILES	IC50
Cc1ncccc1C(C#N)N1CCN(C(=O)CC(NC(=O)OCc2ccccc2)c2ccccc2)CC1 (stereo not given) [(3-{4-[Cyano-(2-methyl-pyridin-3-yl)-methyl]-piperazin-1-yl}-3-oxo-1-phenyl-propyl)-carbamic acid benzyl ester]	22 nM
CNC(CC(=O)N1CCN(C(C#N)c2cccnc2C)CC1)c1ccccc1 (stereo not given) [[4-(3-Methylamino-3-phenyl-propionyl)-piperazin-1-yl]-(2-methyl-pyridin-3-yl)-acetonitrile]	11 nM
Cc1ncccc1C(C#N)N1CCN(C(=O)CC(NC(=O)OCC(C)C)c2ccccc2)CC1 (stereo not given) [(3-{4-[Cyano-(2-methyl-pyridin-3-yl)-methyl]-piperazin-1-yl}-3-oxo-1-phenyl-propyl)-carbamic acid isobutyl ester]	36 nM
Cc1ncccc1C(C#N)N1CCN(C(=O)CC(c2ccccc2)c2ccccc2)CC1 (stereo not given) [[4-(3,3-Diphenyl-propionyl)-piperazin-1-yl]-(2-methyl-pyridin-3-yl)-acetonitrile]	18 nM
COC(=O)N(C)C(CC(=O)N1CCN(C(C#N)c2cccnc2C)CC1)c1ccccc1 (stereo not given) [(3-{4-[Cyano-(2-methyl-pyridin-3-yl)-methyl]-piperazin-1-yl}-3-oxo-1-phenyl-propyl)-methyl-carbamic acid methyl ester]	20 nM
